Test results reported in patent publication US20190290623A1, “USE OF TIOTROPIUM BROMIDE TO PREVENT PULMONARY OXYGEN TOXICITY” (priority 2018, published 2019).
“Also recorded” adds a separate entry of the source.

Tests used:
Format in all cases: in vivo
[1] = system: swine exposed to 2.5 ATA hyperbaric oxygen for 5.5 hr; assay: Experiment 2 deep exposure simulation: Impulse Oscillometry (IOS); conditions: 2.5 ATA O2 5.5 hr, post-dive normalized to baseline, n=6/arm
Procedure: Experiment 2 is designed to evaluate the efficacy of tiotropium bromide pre-dive with respect to reducing decrements in pulmonary function due to PO2T following a 5.5 hour, 2.5 ATA hyperbaric oxygen exposure. This dive profile was selected because it caused the most significant pulmonary function deficits in humans with minimal risk of seizure due to CNS oxygen toxicity.
(§1) Hyperbaric Exposures: Individual animals were then placed into a Plexiglas box (30 in.×42 in.×38 in., manufactured in-house) within a Multiple Large Animal Chamber (MLAC), which is a steel-hulled hyperbaric chamber (450-cubic ft. floodable volume and pressure tested to 1,230 feet of seawater [fsw] equivalent) (Bethlehem Steel Corp, Bethlehem Pa.). Pressure/depth was monitored by a CPG 2500 Digital Pressure Gauge (Mensor Corp., San Marcos, Tex.). Swine were dove in pairs with each treatment group represented. Swine box assignment was alternated with respect to treatment to avoid any effects associated with individual box environmental features. Animals were monitored via closed-circuit television to observe signs of distress related to middle ear barotrauma (e.g. head shaking, nystagmus) and seizure activity. Oxygen concentration was measured and recorded using a portable O2 analyzer (Teledyne Analytical Inst, City of Industry, Calif.). […]

[2] = system: swine exposed to 1.5 ATA hyperbaric oxygen for 17.5 hr; assay: Experiment 1 shallow exposure simulation: Impulse Oscillometry (IOS); conditions: 1.5 ATA O2 17.5 hr, 18 mcg nebulized pre-dive, post-dive normalized to baseline, n=7/arm
Procedure: Experiment 1 is designed to evaluate the efficacy of tiotropium bromide administered pre-dive in reducing decrements in pulmonary function due to PO2T following a 17.5 hour, 1.5 ATA hyperbaric oxygen exposure. This dive profile was selected because it was of sufficient duration to elicit persistent pulmonary function decrement in humans.
The swine were anesthetized with propofol (20 cc, I.V. target, adjusted as needed to optimize sedation), intubated and ventilated. Anesthetized swine were shaved, then ECG and EEG electrodes were placed. Animals were then paralyzed with Atracurium Besylate (50 mg, IV) for accurate pulmonary function measurements of quasi-static and dynamic compliance.
Following baseline pulmonary function measurements, the swine were randomized to receive equivalent volumes of normal saline or tiotropium bromide (18 mcg) via nebulizer. The swine were then ventilated until muscle tone was regained. […]
Next, the swine were switched to 100% oxygen breathing gas and remained at 1.5 ATA for 17.5 hr. […] When fully sedated, the swine were ventilated, paralyzed with Atracurium Besylate, and post-dive measurements of pulmonary function were recorded. During all phases of study the swine were continuously monitored for signs of seizure or distress. […]

[3] = system: swine exposed to 1.5 ATA hyperbaric oxygen for 17.5 hr; assay: Experiment 1: adverse effects observation
Procedure: Next, the swine were switched to 100% oxygen breathing gas and remained at 1.5 ATA for 17.5 hr. At the end of the 17.5 hour 1.5 ATA oxygen exposure, swine surfaced at a rate of 1 ATA/minutes (ATA/min), were transferred to a Panepinto sling, sedated with diazepam (1.5-2.0 mg/kg, I.V) and reassessed via impulse Oscillometry. The swine were again anesthetized with propofol and intubated. When fully sedated, the swine were ventilated, paralyzed with Atracurium Besylate, and post-dive measurements of pulmonary function were recorded. During all phases of study the swine were continuously monitored for signs of seizure or distress.
Once measurements were complete, animals were then euthanized by intravenous infusion of euthanasia solution (Euthasol 1-1.5 ml/10 lbs. body weight) and transported to the necropsy suite for post-mortem sample collection.

[4] = system: swine exposed to 2.5 ATA hyperbaric oxygen for 5.5 hr; assay: Experiment 2: adverse reactions / seizure observation; conditions: 2.5 ATA oxygen exposure
Source text: as §1, with “Calif.). After positioning the animal inside the Plexiglas box, the MLAC was sealed and pressurized using air at the rate of I ATA/minute to a depth of 2.5 ATA. After 2.5 min at a bottom depth equivalent to 2.5 ATA, the breathing gas was switched to 100% O2 and maintained for 5.5 Hrs. After completing 5.5 Hrs on 100% O2, the inspired gas was switched back to air for 3 min. Then, the chamber was decompressed at 1 ATA/minute.” for “Calif.).”

[5] = system: swine exposed to 2.5 ATA hyperbaric oxygen for 5.5 hr; assay: Experiment 2: lung wet-dry ratio; conditions: 2.5 ATA O2 5.5 hr; n=13; mean ± SEM; p=0.4566 vs saline
Source text: Lungs were collected from the swine during necropsy. The right lung was collected for measurement of wet-dry ratios. The left lung was fixed via tracheal instillation at a standard pressure of 25 cmH2O with 10% neutral buffered formalin (NBF). The lungs were then sectioned into ten, one centimeter (cm) cranial to caudal serial sections. Three, 1 cm blocks were cut from each section and post-fixed in 10% NBF, trimmed, embedded in paraffin and cut into 5 μm sections for histological staining. Histology slides were de-paraffinized and stained with hematoxylin and eosin. A board-certified veterinary pathologist blinded to group randomization reviewed all gross necropsies, images, and histology slides.
All data were compiled into Excel spreadsheets then imported into Graphpad Prism 7.02 for statistical analysis. […] To allow for accurate data comparison between animals and/or groups the pressure volume curves were separated into inspiratory arms (0 to 40 cm H2O) and expiratory arms (40 to −40 cm H2O). Each arm was then fit using a non-linear regression utilizing a Gaussian distribution model. Volume data was then extrapolated from the curve corresponding to pressures from 0 to 40 cmH2O at 2.5 cm H2O increments. Statistical group-wise comparison of the extrapolated inspiratory and expiratory arms were conducted using repeated measures two-way ANOVA. […]

Structure (SMILES): C[N+]1(C)[C@@H]2C[C@@H](OC(=O)C(O)(c3cccs3)c3cccs3)C[C@H]1[C@@H]1O[C@@H]12 [Tiotropium, tiotropium bromide]
- IOS resistance in saline treated controls when compared to Tiotropium treated swine ([1]; all frequencies, p=0.0421): significant decrease in resistance
- IOS reactance in saline treated controls when compared to Tiotropium treated swine ([1]; p=0.0587): decrease in reactance which approached significance; also recorded: decrease in reactance, which approached significance
- IOS resistance, Tiotropium treated animals vs saline controls ([2]; p=0.172): no significant differences
- IOS reactance, Tiotropium treated animals vs saline controls ([2]; p=0.65): no significant differences
- adverse effect on outcome at any of the assessed endpoints ([3]; 1.5 ATA O2 17.5 hr, 18 mcg nebulized pre-dive): no observable adverse effect
- adverse reactions (including seizure) ([3]; 1.5 ATA oxygen exposure): no adverse reactions
- adverse reactions (including seizure) [4]: no adverse reactions
- Wet-Dry ratios of lung [5]: 6.067±0.2305
